Measured values as given in US11439657B2, “Cancer stem cell growth inhibitor using miRNA” (CancerStem Tech Inc., priority 2017, dated 2022).
Entries after “also recorded” stand apart in the source; their conditions may differ.

Legend:
[1] = tested on: solid tumor from the cancer stem cell population (ZsGreen+); experiment: Mouse subcutaneous solid tumor model test; format: in vivo, BALB/cA nude mice
Experimental: In 100 ml of distilled water, 0.37 g of NaHCO3, 90 μl of NaH2PO4.2H2O (1M) and 180 μl of CaCl2 (1 M) were added in this order and dissolved, and the pH was adjusted to 7.5 with 1N HCl. This was filtered through 0.2 μm diameter filter. Per 1 ml of the resultant buffer, 2 μg of miRNA and 4 μl of CaCl2 (1 M) were mixed and incubated in a water bath at 37° C. for 30 minutes. Then, spin down was performed at 15000 rpm×5 minutes. The resultant pellet was dispersed in physiological saline (containing 0.5 wt % albumin). Accordingly, a dispersion of composite particles containing the miRNA in carbonate apatite particles was obtained. The resultant dispersion was subjected to ultrasonic vibration treatment for 10 minutes just prior to testing. Note that the ultrasonic vibration treatment was performed for 10 minutes using a water bath with an ultrasonic vibration function, in which the dispersion contained in a plastic container was floated on water set to 20° C., under conditions of high frequency output of 55 W and oscillation frequency of 38 kHz. The preparation obtained in this way was immediately used for the tests described below.
Note that it is confirmed in the measurement using a scanning probe microscope that the dispersion of ultrasonic vibration treatment includes composite particles composed of carbonate apatite nanoparticles containing the miRNA having an average particle diameter of 50 nm or less. It is also confirmed that the resultant composite particles contain about 20 μg of the miRNA per 1 mg of carbonate apatite.
The cancer stem cell population (ZsGreen+) obtained in Test Example 1 was subcutaneously injected at 5×10^5 cells to the left and right backs of 6 to 8 weeks age BALB/cA nude mice (manufactured by CLEA Japan, Inc.) to produce solid tumor model mice. When the tumor reached about 20 mm^3 in size, the mice were randomly divided into an hsa-miR-136-5p administration group (hsa-miR-136-5p), an untreated group, and a negative control group (control miRNA). In the hsa-miR-136-5p administration group, the day at which the tumor reached about 20 mm^3 in size was 0th day. On the 0th, 3rd, 5th, 7th, 10th, 12th, 14th, 17th and 19th days, carbonate apatite nanoparticles containing the hsa-miR-136-5p were intravenously injected into the tail vein at 40 μg/dose in terms of the amount of hsa-miR-136-5p. In the negative control group, carbonate apatite nanoparticles containing a control miRNA (SEQ ID NO: 9) were intravenously injected into the tail vein at the same schedule and dose as those for the miRNA136-5p administration group. In the untreated group, no drug was administered. During the test period, the tumor volume on the back of the mouse (longer diameter×shorter diameter×shorter diameter×1/2) was measured over time, and on the 24th day, the tumor was excised from the mice and observed for size, and its weight was measured.
A mouse subcutaneous solid tumor model test was conducted in the same manner as in Test Example 2 except that hsa-miR-3065-3p was used in place of hsa-miR-136-5p.
A mouse subcutaneous solid tumor model test was conducted in the same manner as in Test Example 2 except that hsa-miR-181-5p was used in place of hsa-miR-136-5p.

[2] = tested on: human gastric cancer cells (AGS line); experiment: Antitumor effect on human gastric cancer cells, cell count after transfection; format: cell-based; details: 10 pmol/well, 48 hours, FIG. 10; for antitumor effect: positive control hsa-miR-34a
Experimental: A cell suspension prepared by suspending human pancreatic cancer cells (Bxpc3 line) in D-MEM medium (containing 10% by volume FBS) was seeded in each well of a 24-well plate at 3×10^3 cells/well, followed by culture at 37° C. overnight. Thereafter, according to the lipofectamin 2000 protocol, each miRNA was transfected at 10 pmol/well, and 48 hours later, the cells were counted. In addition, tests were also conducted under the same condition on a case where the miRNA was not introduced (untreated group), a case where hsa-miR-34a (SEQ ID NO: 8) was used (positive control) in place of the miRNA, and a case where a control miRNA (SEQ ID NO: 9) was used (control miRNA, negative control) in place of the selected miRNA.
As to hsa-miR-136-5p, hsa-miR-3065-3p and hsa-miR-181a-5p, evaluation was performed of the antitumor effect on human gastric cancer cells. The specific test method is the same as that for Test Example 4 except that human gastric cancer cells (AGS line) were used as cancer cells.

[3] = tested on: human large bowel cancer cells (HT29 line); experiment: Drug sensitivity in combination with oxaliplatin (cell viability); format: cell-based; details: miRNA 50 nM, oxaliplatin 0-128 μM for 72 hours, compared to only oxaliplatin and to control plus oxaliplatin, FIG. 16
Experimental: A cell suspension prepared by suspending human large bowel cancer cells (HT29 line) in RPMI medium was seeded in each well of a 6-well plate at 3×10^5 cells/well, and a mixture of lipofectamin RNAiMAX Regent (final concentration in well: 0.03 μL/well) and hsa-miR-3065-3p (final concentration in well: 50 nM) was further added, followed by culture for 1 day. Then, cells were recovered and suspended in RPMI medium, and were seeded in each well of a 96-well plate at 3×10^3 cells/well, followed by culture for 2 days. Thereafter, oxaliplatin was added to each well at 0, 2, 4, 8, 16, 32, 64 or 128 μM, followed by additional culture for 72 hours. After culture, living cells in each well were counted by GloMax-Multi Detection System (Promega Corporation). When the number of living cells under a condition where oxaliplatin was not added was 100%, the ratio of the number of living cells under each condition (cell viability, %) was determined. In addition, tests were also performed under the same condition on a case where a control miRNA (SEQ ID NO: 9) was used (control miRNA, negative control) in place of hsa-miR-3065-3p, and on a case where no miRNA was added.

## hsa-miR-136-5p: human-derived miR-136-5p; base sequence set forth in SEQ ID NO: 1 as mature miRNA (ACUCCAUUUGUUUUGAUGAUGGA; listed as RNA, chemistry not given here; listed as Homo sapiens)
[1]; 24th day, carbonate apatite nanoparticles, 40 μg/dose i.v., FIGS. 5b and 5c
  tumor excised on the 24th day (size and weight) as compared to the untreated group and the negative control group: significantly smaller
[1]; after the 7th day, carbonate apatite nanoparticles, 40 μg/dose i.v., FIG. 5a
  tumor volume as compared to the untreated group and the negative control group: significantly smaller tumor volume
[1]; carbonate apatite nanoparticles containing the miRNA, 40 μg/dose, tail vein i.v., days 0-19, tumor excised on the 24th day
  antitumor effect as compared to the untreated group and the negative control group (control miRNA): remarkably higher antitumor effect
[2]
  proliferation inhibitory effect on gastric cancer cells: strong proliferation inhibitory effect
  antitumor effect: much better antitumor effect than that of hsa-miR-34a; also recorded: particularly remarkable antitumor effect

## hsa-miR-3065-3p: human-derived miR-3065-3p; base sequence set forth in SEQ ID NO: 2 as mature miRNA (UCAGCACCAGGAUAUUGUUGGAG; listed as RNA, chemistry not given here; listed as Homo sapiens)
[1]; from the 17th day, carbonate apatite nanoparticles, 40 μg/dose i.v., FIG. 6
  tumor volume as compared to the untreated group and the negative control group: significantly reduced
[3]
  number of living cells (cell viability) on treatment with both hsa-miR-3065-3p and oxaliplatin: significantly reduce the number of living cells
[2]
  proliferation inhibitory effect on gastric cancer cells: strong proliferation inhibitory effect
  antitumor effect: much better antitumor effect than that of hsa-miR-34a
